Pest or weed control and mortality data for ten molecules are collected here from patent EP0326331B1, “Substituted quinolines and cinnolines” (Dow AgroSciences LLC, priority 1988, dated 1989).

The structures appear in SMILES notation.

What all share (assay type): in vivo
Test [1] has as its system Erysiphe graminis tritici (powdery mildew). Kind of test: Test 1 greenhouse foliar spray screen, powdery mildew on wheat. Conditions: Blumeria graminis, foliar, Test 1, foliar spray on wheat; disease control rating at 400 ppm / 100 ppm; read-out: POWD MDEW.
Test [2] has as its system Pyricularia oryzae (rice blast). Kind of test: whole plant or invertebrate. The conditions noted are these: Pyricularia oryzae, foliar, read-out: RICE BLAST, Test 1, foliar spray on rice; disease control rating at 400 ppm / 100 ppm.
Test [3] relates to Puccinia recondita tritici (leaf rust). The experiment in a line: Test 1 greenhouse foliar spray screen, leaf rust on wheat. The conditions noted are these: Puccinia recondita, foliar, Test 1, foliar spray on wheat; disease control rating at 400 ppm / 100 ppm.
Test [4] relates to Botrytis cinerea (gray mold). The experiment in a line: Test 1 greenhouse foliar spray screen, gray mold on grape berries. The conditions noted are these: Botrytis cinerea, foliar; Test 1, spray on grape berries; disease control rating at 400 ppm / 100 ppm.
Test [5] relates to Pseudoperonospora cubensis (downy mildew). The experiment in a line: Test 1 greenhouse foliar spray screen, downy mildew on squash. Conditions: Pseudoperonospora cubensis, foliar, Test 1, foliar spray on squash; disease control rating at 400 ppm / 100 ppm; read-out: DOWN MDEW.
Test [6] relates to southern armyworm (Spodopetra eridania Cramer). The experiment in a line: Mite/insect screen, SAW. The conditions noted are these: Spodoptera eridania, foliar, percent mortality, foliar spray on squash, read-out: SAW RESULTS %; for mortality at 200 ppm: rate 200 ppm; for mortality at 400 ppm: rate 400 ppm. The essentials:
(§1)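 Percent mortality was scored after standard exposure periods, following spraying of leaves to runoff (both surfaces, 10 psi, 1 h drying) with water dilutions of compound in emulsifier-containing acetone/alcohol (50:50). Armyworms received excised treated leaves in dishes.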

Test [7] has as its system Twospotted spider mites (Tetranychus urticae Koch). The experiment in a line: Mite/insect screen, SM. The conditions noted are these: Tetranychus urticae, foliar, percent mortality, foliar spray on squash, read-out: SM RESULTS %; for mortality at 400 ppm: rate 400 ppm; for mortality at 200 ppm: rate 200 ppm. The gist of the method: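 Read-out: percent mortality after standard exposure periods. Test solutions were water dilutions of compound dissolved in acetone/alcohol (50:50) with emulsifier blends; leaves were sprayed to runoff on both surfaces and air-dried for one hour before exposure.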

Test [8] has as its system melon aphids (Aphis gossypii Glover). The experiment in a line: Mite/insect screen, MA. Conditions: Aphis gossypii, foliar, percent mortality, foliar spray on squash, read-out: MA RESULTS %; for mortality at 200 ppm: rate 200 ppm; for mortality at 400 ppm: rate 400 ppm. The essentials: as §1
The subject of test [9] is corn rootworm. The experiment in a line: Mite/insect screen, CRW. The conditions noted are these: percent mortality, read-out: CRW RESULTS %; for mortality at 12 ppm: CRW rate 12.00 ppm; for mortality at 24 ppm: CRW rate 24.00 ppm. The gist of the method: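 Corn rootworm mortality (%) was evaluated following standard exposure times. Test material was emulsified by dissolution in acetone/alcohol (1:1) containing sulfonate/nonionic emulsifier blends TOXIMUL R (23 g/L) and TOXIMUL S (13 g/L), and water-diluted to the indicated doses.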

As for `Fc1cccc2c(OCCc3ccccc3Cl)ccnc12` [Example 269, 4-[2-(2-chlorophenyl)ethoxy]-8-fluoroquinoline], the pest or weed control at 400 ppm was 90 to 100% in test [1]; 90 to 100% in [2]; 90 to 100% in test [3]; 0 to 19% in test [4]; 90 to 100% in [5]. The mortality at 200 ppm in test [6] worked out at 0%; in test [8] it was 30%. Further, the mortality at 400 ppm in [6], in test [7] and in test [8] was 0% throughout. Further, the mortality at 12 ppm in [9] was found to be 0%. Further, the mortality at 24 ppm in [9] is 40%.

Regarding `CCC(COc1ccnc2c(F)cccc12)c1ccc(-c2ccccc2)cc1` (stereo not shown) [Example 270, 4-[2-[1,1'-biphenyl]-4-ylbutoxy]-8-fluoroquinoline], the pest or weed control at 400 ppm in test [1] was 0 to 19%; in test [2], 20 to 89%; in test [3], 0 to 19%; in test [4], 0 to 19%; in [5], 0 to 19%. Further, the mortality at 200 ppm turned out to be 20% in test [6], 0% in test [7] and 0% in test [8]. In addition, the values for the mortality at 400 ppm in [6], in test [7] and in test [8] were 0%, 80% and 0%, respectively. The mortality at 12 ppm in test [9] was 0%. Also, in test [9], the mortality at 24 ppm worked out at 0%.

For `CC(C)(C)c1ccc(CCCNc2ccnc3c(F)cccc23)cc1` [Example 271, N-[3-[4-(t-butyl)phenyl]propyl]-8-fluoro-4-quinolinamine], the pest or weed control at 400 ppm in test [1] was in the range of 0 to 19%; in test [2] it was 90 to 100%; in test [3], 20 to 89%; in test [4] it was 0 to 19%; in test [5], 90 to 100%. The mortality at 200 ppm in test [6], in test [7] and in test [8] was 0% each time. Also, the mortality at 400 ppm in test [6], in [7] and in [8] was 0% each time. In addition, the mortality at 12 ppm in test [9] stood at 0%. The mortality at 24 ppm in [9] came out at 0%.

With `Fc1cccc2c(OCCCCOc3ccccc3)ccnc12` [Example 272, 8-fluoro-4-(4-phenoxybutoxy)quinoline], the pest or weed control at 400 ppm in test [1] lay in the range of 0 to 19%; in test [2] it was 20 to 89%; in test [3], 0 to 19%; in [4], 0 to 19%; in test [5] it was 20 to 89%. Further, the mortality at 200 ppm in test [6], in test [7] and in test [8] was 0% in each case. Moreover, the mortality at 400 ppm in test [6] is 0%; in [7] it was 20%; in test [8], 0%. The mortality at 12 ppm in test [9] was determined as 0%. Besides, in test [9], the mortality at 24 ppm came to 0%.

With `CC(=O)Oc1ccc(CCN(C(C)=O)c2ccnc3c(F)cccc23)cc1` [Example 273, N-[2-(4-acetoxyphenyl)ethyl]-N-(8-fluoro-4-quinolinyl)acetamide], the pest or weed control at 400 ppm fell in the range of 20 to 89% in test [1]; 90 to 100% in test [2]; 20 to 89% in [3]; 0 to 19% in test [4]; 20 to 89% in test [5]. The mortality at 400 ppm in test [6], in test [7] and in test [8] was 0% throughout. Further, the mortality at 24 ppm in test [9] is 0%.

For `CC(CCOc1ccnc2c(F)cccc12)CC(C)(C)C` (stereo not shown) [Example 274, 8-fluoro-4-(3,5,5-trimethylhexyloxy)quinoline], the pest or weed control at 400 ppm is 90 to 100% in test [1]; 90 to 100% in test [2]; 90 to 100% in test [3]; 0 to 19% in [4]; 20 to 89% in test [5]. The mortality at 200 ppm in test [6] was 0%; in test [7], 100%; in test [8] it was 100%. Moreover, the mortality at 400 ppm in test [6] was 0%; in test [7], 0%; in [8] it was 100%. Besides, in test [9], the mortality at 12 ppm was found to be 0%. The mortality at 24 ppm in test [9] is 0%.

As for `Fc1ccc(CCOc2ccnc3c(F)cccc23)c(F)c1` [Example 275, 8-fluoro-4-[2-(2,4-difluorophenyl)ethoxy]quinoline], the pest or weed control at 400 ppm was 90 to 100% in [1]; 90 to 100% in test [2]; 90 to 100% in test [3]; 0 to 19% in test [4]; 90 to 100% in test [5]. For the same molecule, the mortality at 200 ppm in test [6] was determined as 0%; in [7] it was 0%; in test [8], 90%. Besides, the mortality at 400 ppm amounted to 0% in test [6], 60% in test [7] and 100% in test [8]. For the same molecule, the mortality at 12 ppm in [9] amounted to 0%. Further, the mortality at 24 ppm in [9] came to 0%.

With `Fc1ccc(CCOc2ccnc3cc(Cl)ccc23)c(F)c1` [Example 276, 7-chloro-4-[2-(2,4-difluorophenyl)ethoxy]quinoline], the pest or weed control at 400 ppm fell in the range of 90 to 100% in test [1]; 0 to 19% in test [2]; 20 to 89% in test [3]; 0 to 19% in test [4]; 0 to 19% in test [5]. Moreover, the mortality at 200 ppm in [6], in test [7] and in test [8] was 0% each time. The mortality at 400 ppm in test [6] came out at 0%; in [7], 60%; in test [8], 80%. Besides, the mortality at 12 ppm in test [9] came out at 0%. In addition, the mortality at 24 ppm in test [9] came out at 0%.

Regarding `CCOc1ccc(CCOc2ccnc3cc(Cl)cc(Cl)c23)cc1` [Example 277, 5,7-dichloro-4-[2-(4-ethoxyphenyl)ethoxy]quinoline], the pest or weed control at 400 ppm in test [1] fell in the range of 90 to 100%; in test [2], 0 to 19%; in test [3], 0 to 19%; in test [4], 0 to 19%; in test [5], 0 to 19%. The mortality at 400 ppm in [6], in test [7] and in test [8] was 0% each time. Besides, the mortality at 24 ppm in test [9] amounted to 0%.

`CCCCOc1ccc(CCOc2ccnc3c(F)cccc23)cc1` [Example 278, 4-[2-(4-butoxyphenyl)ethoxy]-8-fluoroquinoline]: the pest or weed control at 400 ppm in test [1] lay within 90 to 100%; in test [2], 90 to 100%; in [3], 90 to 100%; in test [4] it was 0 to 19%; in [5], 90 to 100%. Moreover, the mortality at 200 ppm in test [6] is 0%; in test [7], 60%; in test [8] it was 90%. Besides, the values for the mortality at 400 ppm in test [6], in test [7] and in test [8] were 100%, 0% and 0%, respectively. Moreover, the mortality at 12 ppm in test [9] was 0%. Besides, the mortality at 24 ppm in test [9] came out at 0%.
